Assay results: ChEMBL document CHEMBL1147513, “Sensitivity of neuronal nicotinic acetylcholine receptors to the opiate antagonists naltrexone and naloxone: receptor blockade and up-regulation” (Bioorg Med Chem Lett, 2004)
pIC50: −log10 of the molar value.

Legend:
[1] = tested on: HEK293; test: Decay-time constant of ACh ([…])-evoked currents in the presence of 0.3 uM naltrexone in HEK293 cells; assay type: functional, Homo sapiens
[2] = tested on: HEK293; test: Decay-time constant of ACh ([…])-evoked currents in the presence of 1 uM naltrexone in HEK293 cells; assay type: functional, Homo sapiens
[3] = tested on: HEK293; test: Decay-time constant of ACh ([…])-evoked currents in the presence of 0.1 uM naltrexone in HEK293 cells; assay type: functional, Homo sapiens
[4] = tested on: HEK293; test: Decay-time constant of ACh ([…])-evoked currents in the presence of 10 uM naltrexone in HEK293 cells; assay type: functional, Homo sapiens
[5] = tested on: HEK293; test: Decay-time constant of ACh ([…])-evoked currents in the presence of 3 uM naltrexone in HEK293 cells; assay type: functional, Homo sapiens
[6] = tested on: HEK293; test: Decay-time constant of ACh ([…])-evoked currents in the presence of 300 uM naltrexone in HEK293 cells; assay type: functional, Homo sapiens
[7] = tested on: HEK293; test: Decay-time constant of ACh ([…])-evoked currents in the presence of 100 uM naltrexone in HEK293 cells; assay type: functional, Homo sapiens
[8] = tested on: HEK293; test: Decay-time constant of ACh (100 uM) -evoked currents in the absence of naltrexone in HEK293 cells; assay type: functional, Homo sapiens
[9] = tested on: HEK293; test: Decay-time constant of ACh ([…])-evoked currents in the presence of 30 uM naltrexone in HEK293 cells; assay type: functional, Homo sapiens
[10] = Increase in the charge carried by choline- induced currents in CA1 pyramidal neurons of […] cultures by naltrexone (0.3 uM); assay type: functional, Pyramidal neuron
[11] = Increase in the charge carried by choline- induced currents in […] organotypic hippocampal cultures by naltrexone (0.3 uM); assay type: functional, Hippocampus
[12] = molecular target: T1, Neuronal acetylcholine receptor subunit alpha-4 (Rattus norvegicus, UniProt P09483); test: Blockage of Nicotinic acetylcholine receptor alpha4-beta2 noncompetitively in cultured hippocampal neurons; assay type: tissue-based, Hippocampus
[13] = molecular target: T1, Neuronal acetylcholine receptor subunit alpha-4; test: Blockage of Nicotinic acetylcholine receptor alpha4-beta2 noncompetitively in acute hippocampal slices; assay type: tissue-based, Hippocampus
[14] = molecular target: T2, Neuronal acetylcholine receptor subunit alpha-7 (Homo sapiens, UniProt P36544); test: Blockage of Nicotinic acetylcholine receptor alpha-7 noncompetitively in cultured hippocampal neurons; assay type: tissue-based, Hippocampus
[15] = molecular target: T1, Neuronal acetylcholine receptor subunit alpha-4; test: Blockage of Nicotinic acetylcholine receptor alpha4-beta2 noncompetitively in CA1 stratum radiatum interneurons
[16] = molecular target: T2, Neuronal acetylcholine receptor subunit alpha-7; test: Blockage of Nicotinic acetylcholine receptor alpha-7 noncompetitively in hippocampal primary cultures; assay type: tissue-based, Hippocampus
[17] = Increase in the charge carried by ACh- induced currents in CA1 pyramidal neurons of […] cultures by naltrexone (0.3 uM); assay type: functional, Pyramidal neuron
[18] = Increase in the charge carried by ACh- induced currents in […] organotypic hippocampal cultures by naltrexone (0.3 uM); assay type: functional, Hippocampus

T1 sequence (P09483 whole entry): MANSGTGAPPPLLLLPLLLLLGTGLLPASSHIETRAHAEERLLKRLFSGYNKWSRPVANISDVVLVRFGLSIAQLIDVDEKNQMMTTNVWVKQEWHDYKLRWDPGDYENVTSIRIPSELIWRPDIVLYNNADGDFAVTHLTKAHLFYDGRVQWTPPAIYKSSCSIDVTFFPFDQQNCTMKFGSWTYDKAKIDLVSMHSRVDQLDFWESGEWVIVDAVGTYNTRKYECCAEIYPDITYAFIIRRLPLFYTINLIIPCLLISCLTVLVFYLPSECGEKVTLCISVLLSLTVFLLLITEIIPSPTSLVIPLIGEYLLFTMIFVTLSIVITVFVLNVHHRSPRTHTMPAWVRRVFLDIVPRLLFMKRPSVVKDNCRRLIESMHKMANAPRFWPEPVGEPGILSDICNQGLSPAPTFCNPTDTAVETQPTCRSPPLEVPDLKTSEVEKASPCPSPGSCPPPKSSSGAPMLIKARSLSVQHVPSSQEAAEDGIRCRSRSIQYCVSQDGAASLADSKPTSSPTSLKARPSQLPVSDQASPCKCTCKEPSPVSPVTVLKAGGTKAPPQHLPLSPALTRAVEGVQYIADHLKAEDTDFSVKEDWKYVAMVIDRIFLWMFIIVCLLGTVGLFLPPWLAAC
T2 sequence (P36544 whole entry): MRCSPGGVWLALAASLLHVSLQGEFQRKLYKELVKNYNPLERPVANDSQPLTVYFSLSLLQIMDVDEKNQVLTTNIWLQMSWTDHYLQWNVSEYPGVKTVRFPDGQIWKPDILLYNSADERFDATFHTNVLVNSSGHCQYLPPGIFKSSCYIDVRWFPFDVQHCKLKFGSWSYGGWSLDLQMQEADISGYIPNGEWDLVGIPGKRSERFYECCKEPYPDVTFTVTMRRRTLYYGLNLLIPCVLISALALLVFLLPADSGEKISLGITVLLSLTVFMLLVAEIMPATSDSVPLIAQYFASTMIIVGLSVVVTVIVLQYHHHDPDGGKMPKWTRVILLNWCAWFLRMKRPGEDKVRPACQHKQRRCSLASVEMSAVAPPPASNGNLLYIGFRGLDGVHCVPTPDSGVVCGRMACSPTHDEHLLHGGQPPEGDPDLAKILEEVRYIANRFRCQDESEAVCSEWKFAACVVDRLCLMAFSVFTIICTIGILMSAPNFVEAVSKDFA

| SMILES | Decay-time constant [1] [ms] | Decay-time constant [2] [ms] | Decay-time constant [3] [ms] | Decay-time constant [4] [ms] | Decay-time constant [5] [ms] | Decay-time constant [6] [ms] | Decay-time constant [7] [ms] | Decay-time constant [8] [ms] | Decay-time constant [9] [ms] | Increase [10] [%] | Increase [11] [%] | pIC50 [12] | pIC50 [13] | pIC50 [14] | pIC50 [15] | pIC50 [16] | Increase [17] [%] | Increase [18] [%] |
| --- | --- | --- | --- | --- | --- | --- | --- | --- | --- | --- | --- | --- | --- | --- | --- | --- | --- | --- |
| CC(=O)OCC[N+](C)(C)C [ACETYLCHOLINE] | 495.98 | 543.11 | 509.96 | 467.84 | 508.74 | 202.53 | 257.74 | 547.88 | 422.02 | – | – | – | – | – | – | – | – | – |
| O=C1CC[C@@]2(O)[C@H]3Cc4ccc(O)c5c4[C@@]2(CCN3CC2CC2)[C@H]1O5 [NALTREXONE] | – | – | – | – | – | – | – | – | – | 210 | 283 | 3.86 | 4.51 | 4.52 | 3.85 | 4.60 | 169 | 214 |
